Source: patent US9290537B2, “Method for cross-linking peptides” (UNIVERSITEIT GENT, priority 2010, dated 2016)

Assays:
streptavidin [1] = biological target: T1, streptavidin (Streptomyces avidinii, UniProt P22629); assay: Cross-linking free furan-StrepTagII peptides with streptavidin (furan-oxidation, NBS, MALDI-TOF); type: binding; details: for peptide cross-linking with streptavidin: ten equivalents peptide, 60 min 37° C., one equivalent NBS per peptide, 2 hours 10° C., NaCNBH3
Excerpt: In order to show the cross-link between peptides, an in vitro model system based on the interaction between the StrepTagII and streptavidin was used. The first available Strep-Tag (AWRHPQFGG; SEQ ID NO: 19) able to bind streptavidin could only be attached to the C-terminus of a protein. By changing the sequence of the Strep-Tag, a StrepTagII was developed that can be both N-terminally and C-terminally modified without losing its affinity for streptavidin. Because the intermolecular interactions between the StrepTagII and streptavidin are well characterized, StrepTagII-streptavidin is an excellent model for testing cross-linking.
The free N-terminal and C-terminal furan-StrepTagII peptides 5.2 and 5.3, obtained as described in Example 1, were used to test cross-linking with streptavidin using the furan-oxidation method.
Ten equivalents of the furan-peptides 5.2 or 5.3 were mixed with streptavidin and incubated during 60 min at 37° C. One equivalent of NBS per equivalent of peptide was added as an activation signal and the reaction mixture was incubated during 2 hours at 10° C. with shaking. […] The cross-link between the N-terminal furan-StrepTagII peptide 5.2 and streptavidin was less explicit than the cross-link between the C-terminal furan-StrepTagII peptide 5.3 and streptavidin. This is however not unexpected since the N-terminus of the furan-StrepTagII peptide 5.2 is located outside of its binding site with streptavidin.

[2] = biological target: T2, wild type pyrrolysyl-tRNA synthetase of M. mazei (Methanosarcina mazei, UniProt Q8PWY1); assay: Incorporation of furan amino acid in Yellow Fluorescent Protein in E. coli, wild type synthetase; type: cell-based; details: 0, 2, 5 and 10 mM in T7 Express E. coli cultures; YFP fluorescence
T2 construct: expressed in transfected cells
T2 sequence (Q8PWY1 whole entry): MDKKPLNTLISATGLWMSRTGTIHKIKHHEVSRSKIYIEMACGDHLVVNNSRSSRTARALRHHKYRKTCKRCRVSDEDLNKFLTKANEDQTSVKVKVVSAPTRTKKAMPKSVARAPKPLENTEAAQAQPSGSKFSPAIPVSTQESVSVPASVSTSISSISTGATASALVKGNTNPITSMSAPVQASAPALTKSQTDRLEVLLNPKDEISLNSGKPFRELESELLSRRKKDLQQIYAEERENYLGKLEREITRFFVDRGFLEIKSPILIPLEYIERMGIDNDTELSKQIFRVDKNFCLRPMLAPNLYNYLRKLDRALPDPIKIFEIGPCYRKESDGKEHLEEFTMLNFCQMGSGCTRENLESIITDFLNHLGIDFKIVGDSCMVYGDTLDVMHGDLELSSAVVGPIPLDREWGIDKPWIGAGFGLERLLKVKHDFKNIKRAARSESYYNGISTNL
Description: (§1) The incorporation of unnatural furan amino acids by the pyrrolysyl-tRNA synthetase and its tRNA-CUA in Yellow Fluorescent Protein (YFP) can be easily evaluated by monitoring its fluorescence with confocal microscopy. Without incorporation of the furan amino acid at the amber codon position a truncated non-fluorescent protein was obtained, therefore the obtained fluorescence intensity paralleled the incorporation efficiency. The incorporation of the furan amino acids was tested with the tRNA-CUA of Methanosarcina mazei (M. mazei) and with the wild type pyrrolysyl-tRNA synthetase of M. mazei and the Tyr384Phe-Tyr306Ala variant of the pyrrolysyl-tRNA synthetase of M. mazei (Yanagisawa et al., Chemistry & Biology, 2008, 15, 1187-1197).
(§2) The furan amino acid of Formula (XId) or the furan amino acid of Formula (XIc) was added in a concentration of 0, 2, 5 and 10 mM to 5 ml cell cultures of T7 Express Competent E. coli (from New England BioLabs) transformed with a pET-Duet-1 plasmid (Novagen) containing the genes for the pyrrolysine tRNA-synthetase, 3 copies of the tRNA-CUA and the mutated YFP, in LB medium with the appropriate antibiotic.

[3] = biological target: T3, Tyr384Phe-Tyr306Ala variant of the pyrrolysyl-tRNA synthetase of M. mazei (Methanosarcina mazei, UniProt Q8PWY1, Y306A/Y384F); assay: Incorporation of furan amino acid in Yellow Fluorescent Protein in E. coli, mutated synthetase; type: cell-based; details: for incorporation in YFP by the mutated pyrrolysine tRNA-synthetase: 0, 2, 5 and 10 mM in T7 Express E. coli cultures, YFP fluorescence
T3 construct: expressed in transfected cells
T3 sequence (Q8PWY1 whole entry Y306A/Y384F): as the sequence (Q8PWY1 whole entry) above, with Y306A, Y384F counted along it
Description: as §1, §2

[4] = biological target: T4, wild type pyrrolysyl-tRNA synthetase and tRNA-CUA of M. mazei (Methanosarcina mazei, UniProt Q8PWY1); assay: Incorporation of furan amino acid in thioredoxinA (TrxA), LCMS and trypsin digest; type: cell-based; details: 5 mM in 1 l cell culture; trypsin digest and peptide analysis
T4 construct: expressed in transfected cells
T4 sequence (Q8PWY1 whole entry): as the sequence (Q8PWY1 whole entry) above
Description: In addition to YFP, another protein, thioredoxinA (TrxA), was chosen for providing additional proof of incorporation of a furan amino acid in a protein, through mass characterization after purification.
Experiments were performed similar as in Example 12 with wild type pyrrolysyl-tRNA synthetase and tRNA-CUA of M. mazei, with the mutated TrxA and with the furan amino acid of Formula (XIc) in a concentration of 5 mM in a 1 l cell culture. This yielded 170 μg of protein after purification over a Strep column. Accurate mass determination with full protein LCMS analysis (Orbitrap, Thermo Scientific) found a mass of 13039.7 Dalton (the calculated average mass of the furan-modified oxidized thioredoxinA without the starting methionine is 13039.95 Dalton), proving the incorporation of the furan amino acid in the protein and its stability.

streptavidin [5] = biological target: T1, streptavidin; assay: Specific inhibition of the cross-link of free furan-StrepTagII peptides with streptavidin by biotin; type: binding; details: ten equivalents peptide, streptavidin and biotin, 60 min 37° C.; one equivalent NBS, 2 hours 10° C.
Description: In order to test the specificity of the StrepTagII-streptavidin cross-link, the experiment of Example 5 was repeated in the presence of biotin. As mentioned before, biotin binds streptavidin with high affinity and on the same binding site as the StrepTagII and can therefore act as a specific inhibitor of the cross-link.
Ten equivalents of the furan-StrepTagII peptides 5.2 or 5.3, obtained as described in Example 1, were mixed with streptavidin and biotin and incubated during 60 min at 37° C. One equivalent of NBS per equivalent of peptide was added and the reaction was performed during 2 hours at 10° C. with shaking.

streptavidin [6] = biological target: T1, streptavidin; details: same binding site as the StrepTagII; cited from earlier work

T1 sequence (P22629 25-183, species assumed): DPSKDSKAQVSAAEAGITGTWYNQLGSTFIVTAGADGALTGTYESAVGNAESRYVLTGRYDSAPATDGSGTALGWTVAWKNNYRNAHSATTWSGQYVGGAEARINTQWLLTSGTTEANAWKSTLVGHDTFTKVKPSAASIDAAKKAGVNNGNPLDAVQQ

Row | Compound | peptide cross-linking with streptavidin (streptavidin [1]) | incorporation in YFP by the wild type synthetase [2] | incorporation in YFP by the mutated pyrrolysine tRNA-synthetase [3] | also measured
1 | peptide 5.2: N-terminal furan-StrepTagII peptide with N-terminal (2-furyl)-alanine capped with 2-naphtoic acid (FIG. 8, SEQ ID NO 2) (AWSHPQFEK; N-terminal furylalanine capped with 2-naphthoic acid) | cross-linking was observed |  |  | cross-link with streptavidin compared with peptide 5.3 (streptavidin [1]; same conditions as E1): less explicit
2 | NC(CCCCNC(=O)c1ccco1)C(=O)O (centres unmarked) [furan amino acid of Formula (XIc)] |  | incorporated in YFP by the wild type synthetase in good yield | incorporated both | incorporation in YFP by the mutated synthetase, comparison ([3]; compared with Formula (XId) and with wild type synthetase): better than the incorporation of the furan amino acid of Formula (XId), but in lower yield than with the wild type synthetase; incorporation in TrxA [4]: incorporation of the furan amino acid on the correct position of TrxA
3 | peptide 5.3: C-terminal furan-StrepTagII peptide with C-terminal (2-furyl)-alanine, N-terminally capped with 2-naphtoic acid (FIG. 9, SEQ ID NO 3) (WSHPQFEKA; N-terminal 2-naphthoyl cap; C-terminal 2-furylalanine) | cross-linking was observed |  |  | cross-link with streptavidin in the presence of biotin (streptavidin [5]): no cross-link
4 | NC(CCCCNC(=O)NCc1ccco1)C(=O)O (centres unmarked) [furan amino acid of Formula (XId)] |  | did not incorporate | incorporated both | 
5 | O=C(O)CCCC[C@@H]1SC[C@@H]2NC(=O)N[C@@H]21 [biotin] |  |  |  | affinity for streptavidin relative to StrepTagII (streptavidin [6]): much higher affinity
